In one test the target is T1, PIP4K2A (Homo sapiens, UniProt P48426).
T1 construct: made in house; host or cells: E. coli
T1 sequence (P48426 1-406): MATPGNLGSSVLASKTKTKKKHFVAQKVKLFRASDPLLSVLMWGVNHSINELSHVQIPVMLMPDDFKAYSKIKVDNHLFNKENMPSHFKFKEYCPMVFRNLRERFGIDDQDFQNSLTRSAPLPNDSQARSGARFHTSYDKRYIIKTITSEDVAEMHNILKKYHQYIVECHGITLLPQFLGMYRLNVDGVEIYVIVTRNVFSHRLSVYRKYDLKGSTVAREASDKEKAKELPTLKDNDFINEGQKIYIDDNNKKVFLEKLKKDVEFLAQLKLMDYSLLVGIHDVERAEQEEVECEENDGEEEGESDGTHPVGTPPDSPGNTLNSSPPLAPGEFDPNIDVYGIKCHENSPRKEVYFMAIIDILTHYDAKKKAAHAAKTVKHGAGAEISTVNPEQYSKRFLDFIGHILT
Kind of test: Kinase Assay-PIP4K2 A (ADP-Glo). It is filed as biochemical. The method, then:
Dilution series of the compounds were prepared in DMSO at 100 times the final assay concentration (n1=n0/3 in 10 points). The compounds were further diluted to three times the assay concentration in assay buffer (20 mM MOPS pH 7.2, 25 mM magnesium chloride, 0.005% Tween 20). 6 μL of the diluted compounds were added to a 384 well assay plate followed by 9 μL of a mix consisting of 4 nM PIP4K2A (full length protein, SignalChem) and 100 μM PI(5)P diC8 (Tebu-Bio). Enzyme and compounds were pre-incubated at room temperature for 15 minutes.
Then 3 μL of a solution containing 60 μM ATP (Promega) in assay buffer was added to the wells containing compound and enzyme and mixing was performed by pipetting several times. The reaction was incubated at room temperature for 1 h. Then 18 μL of ADP-Glo™ Reagent (Promega) was added to stop the kinase reaction and deplete the unconsumed ATP, mixing was performed by pipetting several times. The plate was incubated at room temperature for 40 minutes before addition of 36 μL of Kinase Detection Reagent (Promega) to convert ADP to ATP and introduce luciferase and luciferin to detect ATP. The reaction was incubated at room temperature for 40 minutes before the luminescence was measured in a in a Victor 3V 1420 multilabel counter (Perkin Elmer).
Percent inhibition of the compounds as compared to dimethyl sulfoxide treated control samples was calculated. Compound concentration versus percent inhibition were fitted to generate IC50 values. […]
Background: ADP-Glo first removes unused ATP, then detects ADP through luciferase.

For another test, the target named is T2, PIP4K2 B (Homo sapiens, UniProt P78356).
T2 construct: made in house; host or cells: E. coli
T2 sequence (P78356 1-416): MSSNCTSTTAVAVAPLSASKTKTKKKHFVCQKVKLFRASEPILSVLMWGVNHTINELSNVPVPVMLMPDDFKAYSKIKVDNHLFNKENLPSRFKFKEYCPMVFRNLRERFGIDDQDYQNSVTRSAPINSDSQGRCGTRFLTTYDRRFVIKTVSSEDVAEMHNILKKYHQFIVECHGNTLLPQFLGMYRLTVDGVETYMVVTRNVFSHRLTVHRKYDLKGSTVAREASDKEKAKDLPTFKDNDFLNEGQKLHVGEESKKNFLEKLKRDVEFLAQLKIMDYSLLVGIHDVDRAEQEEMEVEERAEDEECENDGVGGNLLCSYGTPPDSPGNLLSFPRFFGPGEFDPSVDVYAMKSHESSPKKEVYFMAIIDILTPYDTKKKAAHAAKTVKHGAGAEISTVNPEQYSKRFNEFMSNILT
Description: Kinase Assay-PIP4K2 B (Transcreener FI). It is filed as biochemical. From the text: GST tagged PIP4KtypeIIA and B enzymes were overexpressed in E. Coli and purified to >80% homogeneity. Phosphatidyl inositol-5-phosphate (PI5P, Cat. #850152, Avanti Polar Lipids Inc.) was used as the lipid substrate and phosphatidyl ethanolamine (DOPE 18:1, Cat. #850725, Avanti Polar Lipids Inc.) was used as the carrier lipid for assays. Ultrapure ATP and GTP was purchased from Bellbrooke Labs. ADP Glo reagents were obtained from Promega. Transcreener FI reagent was obtained from Bellbrooke labs.
• 1. HEPES buffer mix: 200 mM HEPES pH 7.4, 50 mM MgCl2, 0.05% v/v triton X 100 • 2. HNE buffer: 20 mM HEPES, pH 7.4, 100 mM NaCl, 0.5 mM EGTA • 3. H:E buffer: 30 mM HEPES, pH 7.4, 1 mM EGTA
GST-tagged PIP4KtypeIIB (3.4 μl, 2.77 mg/mL) was diluted to 5 mL using HNE buffer to yield 5× enzyme stock (25 nM)
Lipid Preparation: In a 10 mL pyrex glass vial, […] were suspended in 2.5 mL of HEPES buffer mix and 2.5 mL of H:E buffer. The contents were mixed and sonicated for 3 min to yield a translucent lipid stock.
Compound Preparation: Compounds were stored as 5 mM stocks in neat DMSO as room temperature in glass vials. 5 mM stocks were diluted to 2 mM and then serially diluted (3×) in neat DMSO in 96 well polypropylene plates. From the serially diluted stocks, 3 μL was delivered into 250 μL of 25% DMSO (in water) to generate 5× compound stocks. Typically, the highest compound conc. was 24 μM.
The assay volume was kept at 25 μL. To each well of the reaction plate, 10 μL of lipid stock (1:1 ratio PI5P:DOPE) was delivered. This was followed by the addition of 5 μL of compound in 25% DMSO. Then, to each well, 5 μL of 25 nM (5×) typeIIB enzyme was delivered. The contents were mixed well and incubated for 1 h at 27° C. After 1 h, reaction was initiated by adding 5 μL of 500 μM GTP and the contents were mixed well with a multi-channel pipetteman. The final concentration of the reagents are as follows: 50 mM HEPES, pH 7.3, 10 mM MgCl2, 20 mM NaCl, 0.01% v/v triton-X100, 5% DMSO, 100 μM GTP, 80 μM (2 μg) PI5P, 2 μg DOPE, and 5 nM PIP4KIIB Typically, the highest conc. of compounds was 4.8 μM and the lowest conc. was 0.
After 2 h, the reaction was quenched by adding 25 μL of transcreener FI reagent. The contents were incubated at rt for 1 h and the Fluorescence (Ex: 584 Em: 623) was read using Molecular Devices Paradigm plate reader. […] The blanks were averaged and subtracted from all other wells. Using a calibration curve, RFU was converted to μM GDP (product). IC50 was calculated by plotting the residual activity (expressed as % No inhibitor control) vs. log [Inh. conc.].

The subject of the next test is MOLM-16. Kind of test: MOLM-16 EC50 assay. To be noted: MOLM16. In kind it is cell-based.

Usually pIC50 stands for the negative decadic logarithm of the IC50, by convention in mol/L. Broadly, the pEC50 is the negative decadic logarithm of the EC50, by convention in mol/L. A high value points to a small EC50.

pEC50, pIC50: −log10 of the molar value.

In the case of `CCN(CC)CCN1CCOc2ncc(Nc3ncc(-c4ccc(N5CCCC5=O)cc4)c(OC)n3)cc21` [Compound 26, 1-{4-[2-({1-[2-(diethylamino)ethyl]-1H,2H,3H-pyrido[2,3-b][1,4]oxazin-7-yl}amino)-4-methoxypyrimidin-5-yl]phenyl}pyrrolidin-2-one], the pIC50 on PIP4K2A and at PIP4K2 B was 6.00 to 7.00 in each case. In addition, the pEC50 in the test on MOLM-16 was 6.00 to 7.00.
As for `COc1nc(Nc2cncc(N3CC[C@@H](N(C)C)C3)c2)ncc1-c1ccc(-c2nnccc2C)cc1` [Compound 34, N-{5-[(3R)-3-(dimethylamino)pyrrolidin-1-yl]pyridin-3-yl}-4-methoxy-5-[4-(4-methylpyridazin-3-yl)phenyl]pyrimidin-2-amine], the negative logarithm of the IC50 (pIC50) on PIP4K2A and at PIP4K2 B was 7.00 to 8.00 each time. This compound showed a negative logarithm of the EC50 (pEC50) in the test on MOLM-16 of 7.00 to 8.00.
With `COc1nc(Nc2cncc(N3CC[C@@H](N(C)C)C3)c2)ncc1-c1ccc(N2CCCC2=O)cc1` [Compound 35, 1-{4-[2-({5-[(3R)-3-(dimethylamino)pyrrolidin-1-yl]pyridin-3-yl}amino)-4-methoxypyrimidin-5-yl]phenyl}pyrrolidin-2-one], the pIC50 at PIP4K2A and at PIP4K2 B was 6.00 to 7.00 each time. The pEC50 with MOLM-16 was 7.00 to 8.00.
Consider `COc1nc(Nc2cncc(N(C)CC(=O)N3CCNCC3)c2)ncc1-c1ccc(N2CCCC2=O)cc1` [Compound 36, 1-(4-{4-methoxy-2-[(5-{methyl[2-oxo-2-(piperazin-1-yl)ethyl]amino}pyridin-3-yl)amino]pyrimidin-5-yl}phenyl)pyrrolidin-2-one], for which the pIC50 against PIP4K2A was 8.00 to 9.00; at PIP4K2 B, 7.00 to 8.00. Also, the pEC50 in the test on MOLM-16 was 6.00 to 7.00.
Regarding `COc1nc(Nc2cncc(N3CC[C@H](N(C)C)C3)c2)ncc1-c1ccc(-c2nnccc2C)cc1` [Compound 37, N-{5-[(3S)-3-(dimethylamino)pyrrolidin-1-yl]pyridin-3-yl}-4-methoxy-5-[4-(4-methylpyridazin-3-yl)phenyl]pyrimidin-2-amine], the pIC50 against PIP4K2A and against PIP4K2 B was 7.00 to 8.00 in each case. The compound also had a pEC50 in the test on MOLM-16 of 7.00 to 8.00.
In the case of `COc1nc(Nc2cncc(N3CC[C@H](N(C)C)C3)c2)ncc1-c1ccc(N2CCCC2=O)cc1` [Compound 38, 1-{4-[2-({5-[(3S)-3-(dimethylamino)pyrrolidin-1-yl]pyridin-3-yl}amino)-4-methoxypyrimidin-5-yl]phenyl}pyrrolidin-2-one], the pIC50 on PIP4K2A and against PIP4K2 B was 7.00 to 8.00 each time. In addition, the pEC50 with MOLM-16 is 7.00 to 8.00.
On to `COc1nc(Nc2cncc(N(C)CCC(=O)N3CCNCC3)c2)ncc1-c1ccc(N2CCCC2=O)cc1` [Compound 39, 1-(4-{4-methoxy-2-[(5-{methyl[3-oxo-3-(piperazin-1-yl)propyl]amino}pyridin-3-yl)amino]pyrimidin-5-yl}phenyl)pyrrolidin-2-one], for which the pIC50 against PIP4K2A and against PIP4K2 B was 7.00 to 8.00 each time. Moreover, the pEC50 in the test on MOLM-16 was 6.00 to 7.00.
Take `COc1nc(Nc2cncc(OCCN3CCC(F)(F)C3)c2)ncc1-c1ccc(-c2nnccc2C)cc1` [Compound 40, N-{5-[2-(3,3-difluoropyrrolidin-1-yl)ethoxy]pyridin-3-yl}-4-methoxy-5-[4-(4-methylpyridazin-3-yl)phenyl]pyrimidin-2-amine]: the negative logarithm of the IC50 (pIC50) at PIP4K2A and at PIP4K2 B was 7.00 to 8.00 throughout. The compound also had a pEC50 in the test with MOLM-16 of 6.00 to 7.00.
Regarding `COc1nc(Nc2cncc(OCCN3CCC(F)(F)C3)c2)ncc1-c1ccc(N2CCCC2=O)cc1` [Compound 41, 1-{4-[2-({5-[2-(3,3-difluoropyrrolidin-1-yl)ethoxy]pyridin-3-yl}amino)-4-methoxypyrimidin-5-yl]phenyl}pyrrolidin-2-one], the negative-log IC50 (pIC50) on PIP4K2A and on PIP4K2 B was 7.00 to 8.00 each time. Further, the pEC50 in the test with MOLM-16 was 7.00 to 8.00.

(Values after patent US12006332B2, “Aminopyrimidine derivatives as phosphatidylinositol phosphate kinase inhibitors” (HiberCell, Inc., priority 2019, dated 2024).)
